The values that follow come from patent publication US20240199572A1, “COMPOUNDS, COMPOSITIONS, AND METHODS FOR TREATING TYPE 2 DIABETES AND DEMENTIA” (THE BOARD OF TRUSTEES OF THE UNIVERSITY OF ILLINOIS, priority 2021, published 2024).

Usually EC50 stands for the concentration needed to bring the measured effect to its halfway point.

The structures appear in SMILES notation.

One series addresses T1, PPARγ (Homo sapiens, UniProt P37231).
T1 construct: purchased Thermo Fisher Scientific
T1 sequence (P37231 232-505 limits assumed): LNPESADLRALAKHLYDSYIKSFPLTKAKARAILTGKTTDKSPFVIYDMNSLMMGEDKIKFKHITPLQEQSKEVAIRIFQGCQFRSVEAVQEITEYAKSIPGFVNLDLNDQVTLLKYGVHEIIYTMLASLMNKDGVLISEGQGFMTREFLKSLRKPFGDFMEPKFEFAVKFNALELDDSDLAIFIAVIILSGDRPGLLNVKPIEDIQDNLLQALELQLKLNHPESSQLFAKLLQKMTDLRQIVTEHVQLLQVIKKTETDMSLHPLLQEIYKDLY
The series can be described thus: LanthaScreen TR-FRET coactivator assay PPARγ (antagonism of pioglitazone). It is filed as biochemical. As for the experimental part: TR-FRET Receptor Binding Assays. LanthaScreen” TR-FRET coactivator assay kits for LXRβ (Thermo Fisher Scientific) and PPARγ (Thermo Fisher Scientific) were performed according to manufacturer instructions using low-binding black 384-well plates and Synergy Neo2 plate reader. For the PPARγ assay, standardization was first performed with control agonist (pioglitazone), then run in two antagonist assays: dose-response of pioglitazone with or without a single concentration of CL2-57, and dose-response of CL2-57 cotreated with a single concentration (500 nM) of pioglitazone. Each compound dose was performed in quadruplicate on each plate, and each experiment was performed in triplicate.
For orientation: Time-resolved FRET reads energy transfer from a long-lived donor to a nearby acceptor.

The subject of a further series is CD1 mice. In words: CD1 mice, three daily p.o. treatments, LXR agonist adverse effects. It is filed as in vivo, mouse. To be noted: 10 mg/kg p.o., three days. An excerpt: Neutrophil Counts. […] After final dose, blood samples were run on an Advia 120 analyzer (Bayer) for neutrophil counts.
The subject of series [1] is ABCA1 protein. In words: ABCA1 protein - HepG2 (immunoblot). Format: cell-based. As to conditions: HepG2 hepatocarcinoma cells. The method, then: (§1) In vitro Immunoblot. Cells were lysed with RIPA buffer (Sigma) containing protease/phosphatase inhibitors (Cocktails II and III, respectively, EMD Millipore). Protein was quantified by BCA assay (Thermo Fisher Scientific). Denatured proteins were separated by gel electrophoresis (NuPage™ 4-12% Bis-Tris, Invitrogen) in MOPS running buffer at 120 V for 1 hour. Proteins were transferred to PDVF membranes (iBlot2). Membrane was blocked in 5% skim milk for 1 hour, incubated with primary antibody at 4° C. overnight, washed with TBST, and then incubated with HRP-linked secondary antibody (Cell Signaling Technology) for 1 hour at room temperature. After TBST wash, membrane was imaged using SUPERSIGNAL® West Femto™ substrate (Thermo Fisher Scientific) on Azure Biosystems c400 imager. Antibodies used: Abcam ab18180 (ABCA1, RRID:AB 444302), Thermo Fisher MA5-11685 (SREBP1, RRID:AB_10984077), Invitrogen MA5-15738 (GAPDH, RRID:AB_10977387).
For orientation: In western blotting, separated proteins are transferred to a membrane and probed.

Series [2] deals with ABCA1 protein. The series can be described thus: ABCA1 protein - J774 (immunoblot). It is filed as cell-based. As for the experimental part:
as §1

A further series addresses T2, LXRα (Homo sapiens, UniProt Q13133).
T2 sequence (Q13133 1-447): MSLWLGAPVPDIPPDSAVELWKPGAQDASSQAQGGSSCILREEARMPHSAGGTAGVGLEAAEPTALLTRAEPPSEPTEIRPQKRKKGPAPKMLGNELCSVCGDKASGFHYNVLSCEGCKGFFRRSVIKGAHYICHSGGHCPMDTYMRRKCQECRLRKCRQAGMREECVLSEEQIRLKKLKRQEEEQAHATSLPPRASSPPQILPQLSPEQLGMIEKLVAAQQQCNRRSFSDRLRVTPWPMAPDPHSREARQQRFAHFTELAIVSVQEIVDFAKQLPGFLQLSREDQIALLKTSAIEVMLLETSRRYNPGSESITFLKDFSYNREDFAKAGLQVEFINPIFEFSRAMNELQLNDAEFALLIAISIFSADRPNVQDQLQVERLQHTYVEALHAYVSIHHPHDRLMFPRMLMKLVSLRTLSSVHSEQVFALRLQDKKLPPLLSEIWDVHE
In words: LXRα NHR screen (DiscoverX NHR-Scan, β-gal reporter). Format: cell-based. The method, then: Receptor Binding Assays. Nuclear hormone (NHR) assays were performed by DiscoverX (Fremont, CA) on their NHR-Scan platform of cell-based protein-protein interaction assays. This platform uses a […] reporter that activates upon interaction of full-length receptor protein with steroid coactivator receptor peptides. In agonist mode, activity of CL2-57 at 10 μM was compared to maximal activity of published positive control agonists; in antagonist mode, reduction in activity with 10 μM CL2-57 from that observed at […] of published agonists was quantified.

Another series deals with SREBF1 mRNA. In words: SREBF1 mRNA - HepG2 (qRT-PCR). Format: cell-based, human. An excerpt: (§2) qRT-PCR. For cell samples, treated cells were lysed with RLT plus lysis buffer (Qiagen). RNA was isolated with Qiagen RNEASY® Plus columns per manufacturer instructions, then reverse-transcribed to cDNA using […]® III Reverse Transcriptase (200 U/μL, Invitrogen) per supplier protocol. qPCR experiments were either performed with TAQMAN® gene expression master mix (Invitrogen) on a StepOne™ qPCR instrument or with […]® SYBR® Green SuperMix (Quanta Biosciences) on CFX Connect™ Real-Time PCR Detection System (BioRad), with fold-change quantified by ΔΔCt. For animal samples, 100 mg tissue was homogenized in 1 mL acid-guanidinium-phenol based reagent sold under the tradename TRIZOL® (Ambion), mixed vigorously in chloroform, and separated by centrifugation. Aqueous layer containing RNA was added to Qiagen RNEASY® Plus column; remaining stops were as described above for cell lysates.

The target in the next series is T3, LXRβ (Homo sapiens, UniProt P55055).
T3 construct: purchased Thermo Fisher Scientific
T3 sequence (P55055 212-460 limits assumed): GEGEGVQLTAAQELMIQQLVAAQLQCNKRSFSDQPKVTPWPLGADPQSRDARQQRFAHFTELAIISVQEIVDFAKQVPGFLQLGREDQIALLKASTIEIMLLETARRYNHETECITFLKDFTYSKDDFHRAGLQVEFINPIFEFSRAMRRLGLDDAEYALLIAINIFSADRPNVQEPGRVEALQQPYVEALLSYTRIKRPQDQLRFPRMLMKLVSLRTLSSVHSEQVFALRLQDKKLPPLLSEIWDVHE
In words: LanthaScreen TR-FRET coactivator assay LXRβ. It is filed as biochemical. To be noted: read-out: EC50, LXRβ agonism, coactivator recruitment via TR-FRET.

Another series relates to ABCA1 mRNA. In words: ABCA1 mRNA - J774 (qRT-PCR). Format: cell-based, mouse.
Excerpt: as §2

A further series has as its system J774 cells. The series can be described thus: Lipopolysaccharide-stimulated J774 cells, TNFα and NOS2. It is filed as cell-based. To be noted: co-treatment.
Excerpt: as §2

Experimental for LXRβ: TR-FRET Receptor Binding Assays. LanthaScreen” TR-FRET coactivator assay kits for LXRβ (Thermo Fisher Scientific) and PPARγ (Thermo Fisher Scientific) were performed according to manufacturer instructions using low-binding black 384-well plates and Synergy Neo2 plate reader. […] Each compound dose was performed in quadruplicate on each plate, and each experiment was performed in triplicate.

For `CCOC(=O)c1cccc(NC(=O)c2sc(Cl)cc2S(=O)(=O)N(C)c2ccc(OCC)c(OCC)c2)c1` [CL2-57, ethyl 3-(5-chloro-3-(N-(3,4-diethoxyphenyl)-N-methylsulfamoyl)thiophene-2-carboxamido) benzoate], the “Activity in PPARγ TR-FRET binding assay” value at PPARγ is “Weak competitive antagonism”. Besides, the “Right-shift in the TR-FRET dose-response for pioglitazone” value at PPARγ (addition of 10 μM CL2-57, p<0.01) is given as 2.1 fold. The TR-FRET signal reduction at PPARγ (constant pioglitazone concentration, CL2-57 at concentrations ≥1 μM) is reported as 20-45%. Further, in the series on CD1 mice, the Circulating neutrophil levels result was “did not affect”, the “Plasma TG” value was “did not affect” and the Plasma cholesterol entry is listed as “did not affect”. The ABCA1 protein entry in the series with ABCA1 protein [1] was “Increased”. The “ABCA1 protein - J774, activity of CL2-57 (10 μM) as % of T0901317 (1 μM)” value in the series on ABCA1 protein [2] (10 μM) is 132%. The ABCA1 protein result in the series with ABCA1 protein [2] (J774 macrophage cells) is “Increased”. In addition, the “LXRα NHR screen, activity of CL2-57 (10 μM) as % of T0901317 (1 μM)” value on LXRα was found to be 34%. For the same compound, the “SREBF1 mRNA - HepG2, activity of CL2-57 (10 μM) as % of T0901317 (1 μM)” value in the series with SREBF1 mRNA is reported as 39%. Moreover, at LXRβ, the EC50 was found to be 1.3 µM. In the series with ABCA1 mRNA (10 μM), the “ABCA1 mRNA - J774, activity of CL2-57 (10 μM) as % of T0901317 (1 μM)” value is given as 90%. Besides, the “ABCA1 mRNA” value with ABCA1 mRNA (J774 macrophage cells) is given as “Increased”. In the series on J774 cells, the “LPS-induced increase of NOS2” value is “dose-dependently reversed” and the “LPS-induced increase of TNFα” value was “dose-dependently reversed”.
